21 molecules from ChEMBL document CHEMBL3822378, “Click-based synthesis and antitubercular evaluation of dibenzofuran tethered thiazolyl-1,2,3-triazolyl acetamides” (Bioorg Med Chem Lett, 2016) can be followed below.

≈ marks a conversion by molar mass, not a printed value.

Series [1] in a line: Cytotoxicity against mouse RAW264.7 cells assessed as growth inhibition at 50 ug/ml after 72 hrs by MTT assay. Type of series: cell-based. Particulars: read-out: GI. Background: Tetrazolium dyes change colour on reduction, which living cells bring about.
In series [2] the test system is Mycobacterium tuberculosis. Description: Antitubercular activity against Mycobacterium tuberculosis H37Rv ATCC 27294 after 28 days by two-fold agar dilution method. Particulars: H37Rv ATCC 27294, 672 h. It counts as functional. (In general: Agar dilution tests growth on a series of plates holding different concentrations.)
For series [3], the system named is Staphylococcus epidermidis. In words: Antibacterial activity against Staphylococcus epidermidis 2D866 by two-fold agar dilution method. Type of series: functional.
Series [4] has as its system Mycobacterium tuberculosis. In words: Antitubercular activity against Mycobacterium tuberculosis H37Rv by microplate alamar blue assay. It counts as functional. For orientation: Alamar Blue is a resazurin reagent that responds to reducing activity.

`CCCCCCCCCCCCc1cn(CC(=O)Nc2nc(-c3ccc4oc5ccccc5c4c3)cs2)nn1`: the inhibition at 72 h, 50 ug/ml in series [1] was 26.5%. In addition, in series [2], 3.12 µg/mL (≈ 5.74 µM) was the least that counted as inhibitory (MIC).
In the same order, the values of `O=C(Cn1cc(-c2ccccc2)nn1)Nc1nc(-c2ccc3oc4ccccc4c3c2)cs1` are 20.4% and 3.12 µg/mL (≈ 6.91 µM).
For the molecule `NC(=O)c1cnccn1` [PYRAZINAMIDE], the MIC in series [2] came to 50 µg/mL (≈ 406 µM).
As for `CCCCCc1ccc(-c2cn(CC(=O)Nc3nc(-c4ccc5oc6ccccc6c5c4)cs3)nn2)cc1`, the MIC in series [2] was > 50 µg/mL.
`CCCCCC(=O)c1c(OC)c(Cl)c2oc3c(Cl)c(OC)c(Cl)c(O)c3c2c1O`: it took 0.39 µg/mL (≈ 0.845 µM) to inhibit growth in series [3] (MIC).
`O=C(Cn1cc(CCc2ccccc2)nn1)Nc1nc(-c2ccc3oc4ccccc4c3c2)cs1`: the MIC in series [2] was > 50 µg/mL.
In turn, `CC[C@@H](CO)NCCN[C@@H](CC)CO` [ETHAMBUTOL] yielded an MIC in series [2] of 3.13 µg/mL (≈ 15.3 µM).
As for `O=C(Cn1cc(-c2ccc(F)cc2F)nn1)Nc1nc(-c2ccc3oc4ccccc4c3c2)cs1`, it took 25 µg/mL (≈ 51.3 µM) to inhibit growth in series [2] (MIC).
`O=C(Cn1cc(C2(O)CCCC2)nn1)Nc1nc(-c2ccc3oc4ccccc4c3c2)cs1`: in series [1], the inhibition at 72 h, 50 ug/ml came to 22.2%. The MIC in series [2] came out at 12.5 µg/mL (≈ 27.2 µM).
In the case of `COc1cccc(-c2cn(CC(=O)Nc3nc(-c4ccc5oc6ccccc6c5c4)cs3)nn2)c1`, in series [1], the inhibition at 72 h, 50 ug/ml came out at 18.1%. Also, the MIC in series [2] came out at 6.25 µg/mL (≈ 13 µM).
In series [2], `O=C(Cn1cc(CCCO)nn1)Nc1nc(-c2ccc3oc4ccccc4c3c2)cs1` returned an MIC of 25 µg/mL (≈ 57.7 µM).
In turn, `O=C(Cn1cc(C2CC2)nn1)Nc1nc(-c2ccc3oc4ccccc4c3c2)cs1` registered an MIC in series [2] of 50 µg/mL (≈ 120 µM).
`CC(C)(C)c1ccc(-c2cn(CC(=O)Nc3nc(-c4ccc5oc6ccccc6c5c4)cs3)nn2)cc1`: the inhibition at 72 h, 50 ug/ml in series [1] turned out to be 30.2%. Also, the MIC in series [2] is 12.5 µg/mL (≈ 24.6 µM).
Take `O=C(Cn1cc(-c2ccc(-c3ccccc3)cc2)nn1)Nc1nc(-c2ccc3oc4ccccc4c3c2)cs1`: in series [2], the MIC is > 50 µg/mL.
Molecule `CCCc1cn(CC(=O)Nc2nc(-c3ccc4oc5ccccc5c4c3)cs2)nn1` had an MIC in series [2] of 50 µg/mL (≈ 120 µM).
Regarding `CCCCCc1cn(CC(=O)Nc2nc(-c3ccc4oc5ccccc5c4c3)cs2)nn1`, the inhibition at 72 h, 50 ug/ml in series [1] was determined as 20.4%. This molecule registered an MIC in series [2] of 12.5 µg/mL (≈ 28.1 µM).
In series [2], `NNC(=O)c1ccncc1` [ISONIAZID] had an MIC of 0.1 µg/mL (≈ 0.729 µM).
With `Cc1ccc(-c2cn(CC(=O)Nc3nc(-c4ccc5oc6ccccc6c5c4)cs3)nn2)cc1`, the lowest concentration to inhibit growth in series [2] (MIC) was 50 µg/mL (≈ 107 µM).
As to `O=C(Cn1cc(-c2cc(C(F)(F)F)cc(C(F)(F)F)c2)nn1)Nc1nc(-c2ccc3oc4ccccc4c3c2)cs1`, the MIC in series [2] came out at 25 µg/mL (≈ 42.6 µM). Against the preceding molecule, the MIC is about 2-fold lower.
In series [4], `CC(=O)C1=C(O)C=C2Oc3c(C(C)=O)c(O)c(C)c(O)c3C2(C)C1=O` (stereo not drawn) yielded an MIC of 12.5 µg/mL (≈ 36.3 µM).
As for `CCCCCCc1cn(CC(=O)Nc2nc(-c3ccc4oc5ccccc5c4c3)cs2)nn1`, the inhibition at 72 h, 50 ug/ml in series [1] worked out at 28.6%. Besides, in series [2], the MIC was found to be 1.56 µg/mL (≈ 3.39 µM).

The term MIC denotes the least concentration at which growth counts as inhibited.
